Where two headings read alike, the source gives them in different places. One block for each compound: values may come before it.
Key:
[1] = molecular target: T1, c-Met (cytoplasmic domain) (Homo sapiens, UniProt P08581); assay: c-Met Kinase Assay (same methods as for ALK, with modifications); type: biochemical
T1 construct: 10 ng/mL c-Met (cytoplasmic domain, Invitrogen Corporation #PV3143); purchased Invitrogen Corporation PV3143
Outline: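 Wells were coated with 10 μg/mL phospholipase C-γ substrate in TBS, and reactions were started with 10 ng/mL c-Met cytoplasmic domain and run at 37° C for 15 minutes. Phosphorylated product was detected with Eu-N1-labeled PT66 antibody. IC50 values came from sigmoidal variable-slope fits of percent inhibition versus log compound concentration.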

[2] = molecular target: T2, baculovirus-expressed ALK (Homo sapiens, UniProt Q9UM73); assay: ALK Kinase Assay (ELISA-type, time-resolved fluorescence); type: biochemical
T2 construct: host or cells: baculovirus expression system
T2 sequence (Q9UM73 19-1620): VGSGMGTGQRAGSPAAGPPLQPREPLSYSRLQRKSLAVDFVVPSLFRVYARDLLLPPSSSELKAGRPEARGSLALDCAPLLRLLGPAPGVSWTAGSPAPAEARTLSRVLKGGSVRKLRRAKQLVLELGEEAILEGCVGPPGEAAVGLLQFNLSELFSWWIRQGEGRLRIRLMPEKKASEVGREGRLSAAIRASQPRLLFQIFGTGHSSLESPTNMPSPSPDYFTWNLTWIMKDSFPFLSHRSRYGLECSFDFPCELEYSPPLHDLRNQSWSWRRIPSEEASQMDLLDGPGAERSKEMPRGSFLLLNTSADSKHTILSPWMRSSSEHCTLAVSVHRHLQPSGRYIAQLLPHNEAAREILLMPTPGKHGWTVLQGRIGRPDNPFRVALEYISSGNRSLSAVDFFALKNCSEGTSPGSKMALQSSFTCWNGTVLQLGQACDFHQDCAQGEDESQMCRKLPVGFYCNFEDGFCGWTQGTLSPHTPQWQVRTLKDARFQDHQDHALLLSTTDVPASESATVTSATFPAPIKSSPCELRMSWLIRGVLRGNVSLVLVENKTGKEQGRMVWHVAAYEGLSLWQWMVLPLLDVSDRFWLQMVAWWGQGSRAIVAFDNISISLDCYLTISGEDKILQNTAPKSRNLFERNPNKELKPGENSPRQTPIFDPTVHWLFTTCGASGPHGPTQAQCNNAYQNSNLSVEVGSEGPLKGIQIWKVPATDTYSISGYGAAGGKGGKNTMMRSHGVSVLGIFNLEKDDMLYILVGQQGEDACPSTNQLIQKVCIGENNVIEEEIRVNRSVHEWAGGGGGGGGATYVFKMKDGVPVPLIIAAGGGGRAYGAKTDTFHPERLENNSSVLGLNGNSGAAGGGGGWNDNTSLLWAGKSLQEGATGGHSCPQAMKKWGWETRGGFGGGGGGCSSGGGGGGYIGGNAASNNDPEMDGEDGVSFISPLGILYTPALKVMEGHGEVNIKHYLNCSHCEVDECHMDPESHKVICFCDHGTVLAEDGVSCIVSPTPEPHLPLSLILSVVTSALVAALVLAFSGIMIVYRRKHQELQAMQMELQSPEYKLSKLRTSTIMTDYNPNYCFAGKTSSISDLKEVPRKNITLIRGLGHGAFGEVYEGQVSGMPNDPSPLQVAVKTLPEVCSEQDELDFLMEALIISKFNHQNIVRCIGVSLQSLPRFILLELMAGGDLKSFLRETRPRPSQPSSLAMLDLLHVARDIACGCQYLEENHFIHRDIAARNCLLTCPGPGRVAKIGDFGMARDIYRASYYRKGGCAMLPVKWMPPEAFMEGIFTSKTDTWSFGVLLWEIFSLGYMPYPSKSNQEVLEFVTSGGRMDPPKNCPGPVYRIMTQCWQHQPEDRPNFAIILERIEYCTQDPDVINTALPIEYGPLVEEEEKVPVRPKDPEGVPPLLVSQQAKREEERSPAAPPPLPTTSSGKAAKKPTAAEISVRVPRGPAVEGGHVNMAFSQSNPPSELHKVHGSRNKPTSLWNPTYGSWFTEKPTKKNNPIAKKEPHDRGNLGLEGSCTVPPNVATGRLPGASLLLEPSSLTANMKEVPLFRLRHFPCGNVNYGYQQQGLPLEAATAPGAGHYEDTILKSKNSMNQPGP
Outline: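 Substrate coating: phospholipase C-γ, 10 μg/mL in TBS. Kinase step: 30 ng/ml ALK, 15 min, 37° C. Detection and analysis: Eu-N1 PT66 antibody, with IC50 fitted as a sigmoidal variable-slope dose-response curve.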

[3] = 1 μM ATP (Km level), 10 ng/mL c-Met, read-out: cMet Activity (c-Met kinase inhibition, IC50 class)
[4] = 1 μM ATP (Km level), 30 ng/ml ALK, 37° C., 15 minutes, read-out: ALK Activity (ALK kinase inhibition, IC50 class)
[5] = c-Met kinase inhibition, 1 μM ATP, read-out: cMet Activity
[6] = ALK kinase inhibition, 1 μM ATP, read-out: ALK Activity
[7] = c-Met kinase inhibition, 1 μM ATP (Km level), read-out: cMet Activity
[8] = ALK kinase inhibition, 1 μM ATP (Km level), read-out: ALK Activity
[9] = 1 μM ATP (Km level), read-out: cMet Activity (c-Met Kinase Inhibition, IC50)
[10] = 1 μM ATP (Km level), read-out: ALK Activity (ALK Kinase Inhibition, IC50)

T1 sequence (P08581 956-1390 limits assumed): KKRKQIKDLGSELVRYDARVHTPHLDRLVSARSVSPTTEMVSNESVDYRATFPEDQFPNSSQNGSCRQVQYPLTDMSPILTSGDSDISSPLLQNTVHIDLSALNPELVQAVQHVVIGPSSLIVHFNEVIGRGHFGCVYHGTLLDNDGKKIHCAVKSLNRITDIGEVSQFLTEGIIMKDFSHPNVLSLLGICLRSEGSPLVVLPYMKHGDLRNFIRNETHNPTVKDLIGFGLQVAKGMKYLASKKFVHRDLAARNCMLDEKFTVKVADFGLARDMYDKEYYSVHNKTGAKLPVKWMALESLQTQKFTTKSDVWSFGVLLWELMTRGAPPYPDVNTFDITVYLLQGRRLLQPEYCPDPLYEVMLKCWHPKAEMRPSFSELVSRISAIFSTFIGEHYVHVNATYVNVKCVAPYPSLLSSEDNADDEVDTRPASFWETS

IC50 [1, 3]: 1000 to 10000 nM | IC50 [2, 4]: < 100 nM
SMILES: COc1cc2c(cc1Nc1ncc(Cl)c(Nc3ccccc3S(=O)(=O)N3CCC(O)C3)n1)CCC(NCCO)CC2 (centres unmarked) [Example 1088, 1-(2-{5-Chloro-2-[7-(2-hydroxy-ethylamino)-3-methoxy-6,7,8,9-tetrahydro-5H-benzocyclohepten-2-ylamino]-pyrimidin-4-ylamino}-benzenesulfonyl)-pyrrolidin-3-ol]

IC50 [1, 5]: < 100 nM | IC50 [2, 6]: < 100 nM
SMILES: CCN1CCN(CC(=O)OCCOC)C(=O)c2ccc(Nc3ncc(Cl)c(Nc4ccccc4C(=O)NC)n3)cc21 [Example 1459, {8-[5-Chloro-4-(2-methylcarbamoyl-phenylamino)-pyrimidin-2-ylamino]-1-ethyl-5-oxo-1,2,3,5-tetrahydro-benzo[e][1,4]diazepin-4-yl}-acetic acid 2-methoxy-ethyl ester]

IC50 [1, 7]: 100 to 1000 nM | IC50 [2, 8]: < 100 nM
SMILES: CNS(=O)(=O)c1ccccc1Nc1nc(Nc2ccc3c(c2)CCN(CCOC)CC3)ncc1Cl [Example 35, 2-{5-Chloro-2-[3-(2-methoxy-ethyl)-2,3,4,5-tetrahydro-1H-benzo[d]azepin-7-ylamino]-pyrimidin-4-ylamino}-N-methyl-benzenesulfonamide]

IC50 [1, 9]: > 10000 nM | IC50 [2, 10]: < 100 nM
SMILES: COc1cc2c(cc1Nc1ncc(Cl)c(Nc3ccc(N4CCC(C(=O)O)CC4)cc3-n3cccn3)n1)CCN(CC(=O)N(C)C)CC2 [Example 630, 1-{4-[5-Chloro-2-(3-dimethylcarbamoylmethyl-8-methoxy-2,3,4,5-tetrahydro-1H-benzo[d]azepin-7-ylamino)-pyrimidin-4-ylamino]-3-pyrazol-1-yl-phenyl}-piperidine-4-carboxylic acid]

IC50 [1, 9]: > 10000 nM | IC50 [2, 10]: < 100 nM
SMILES: CCN1C(=O)CCCc2c1ccc(Nc1ncc(Cl)c(Nc3ccccc3-c3ncccc3C)n1)c2OC [Example 984, 7-{5-Chloro-4-[2-(3-methyl-pyridin-2-yl)-phenylamino]-pyrimidin-2-ylamino}-1-ethyl-6-methoxy-1,3,4,5-tetrahydro-benzo[b]azepin-2-one]

IC50 [1, 9]: 1000 to 10000 nM | IC50 [2, 10]: < 100 nM
SMILES: COc1c(Nc2ncc(Cl)c(Nc3ccccc3S(=O)(=O)N3CCCC3)n2)ccc2c1CCC(N1CCOCC1)CC2 (centres unmarked) [Example 900, 5-Chloro-N*2*-(1-methoxy-7-morpholin-4-yl-6,7,8,9-tetrahydro-5H-benzocyclohepten-2-yl)-N*4*-[2-(pyrrolidine-1-sulfonyl)-phenyl]-pyrimidine-2,4-diamine]

IC50 [1, 5]: > 10000 nM | IC50 [2, 6]: 100 to 1000 nM
SMILES: COc1cc2c(cc1Nc1ncc(Cl)c(Nc3ccc(N4CCOCC4)cc3OC)n1)C(C)(C)CCC(=O)N2 [Example 1672, 7-[5-Chloro-4-(2-methoxy-4-morpholin-4-yl-phenylamino)-pyrimidin-2-ylamino]-8-methoxy-5,5-dimethyl-1,3,4,5-tetrahydro-benzo[b]azepin-2-one]

IC50 [1, 3]: 1000 to 10000 nM | IC50 [2, 4]: < 100 nM
SMILES: CCN1C(=O)[C@H](N(C)C)CCc2c1ccc(Nc1ncc(Cl)c(N[C@H]3[C@@H](C(N)=O)[C@@H]4C=C[C@H]3C4)n1)c2OC (single isomer, unassigned) [Example 1346]

IC50 [1, 7]: 1000 to 10000 nM | IC50 [2, 8]: 100 to 1000 nM
SMILES: CCN1CCc2ccc(Nc3ncc(Cl)c(NCCNS(C)(=O)=O)n3)cc2CC1 [Example 298, N-{2-[5-Chloro-2-(3-ethyl-2,3,4,5-tetrahydro-1H-benzo[d]azepin-7-ylamino)-pyrimidin-4-ylamino]-ethyl}-methanesulfonamide]

IC50 [1, 7]: > 10000 nM | IC50 [2, 8]: < 100 nM
SMILES: CCN1CCc2cc(Nc3ncc(Cl)c(Nc4ccccc4C(=O)NC)n3)c(OC)c(N)c2CC1 [Example 50, 2-[2-(9-Amino-3-ethyl-8-methoxy-2,3,4,5-tetrahydro-1H-benzo[d]azepin-7-ylamino)-5-chloro-pyrimidin-4-ylamino]-N-methyl-benzamide]

IC50 [1, 9]: 100 to 1000 nM | IC50 [2, 10]: < 100 nM
SMILES: COCCN1CCc2ccc(Nc3ncc(Cl)c(Nc4ccccc4-c4ncccc4C)n3)cc2CC1 [Example 972, 5-Chloro-N*2*-[3-(2-methoxy-ethyl)-2,3,4,5-tetrahydro-1H-benzo[d]azepin-7-yl]-N*4*-[2-(3-methyl-pyridin-2-yl)-phenyl]-pyrimidine-2,4-diamine]

IC50 [1, 3]: < 100 nM | IC50 [2, 4]: < 100 nM
SMILES: CC1(C)CCC(=O)Nc2cc(Nc3ncc(Cl)c(N[C@H]4[C@@H](C(N)=O)[C@@H]5C=C[C@H]4C5)n3)ccc21 [Example 1236, (1S,2S,3R,4R)-3-[5-Chloro-2-(5,5-dimethyl-2-oxo-2,3,4,5-tetrahydro-1H-1-benzazepin-8-ylamino)-pyrimidin-4-ylamino]-bicyclo[2.2.1]hept-5-ene-2-carboxylic acid amide]

IC50 [1, 9]: 1000 to 10000 nM | IC50 [2, 10]: < 100 nM
SMILES: COc1ccc(Nc2nc(Nc3ccc4c(c3)C(C)(C)CCC(=O)N4)ncc2Cl)c(-n2cccn2)c1 [Example 611, 7-[5-Chloro-4-(4-methoxy-2-pyrazol-1-yl-phenylamino)-pyrimidin-2-ylamino]-5,5-dimethyl-1,3,4,5-tetrahydro-benzo[b]azepin-2-one]

IC50 [1, 9]: 1000 to 10000 nM | IC50 [2, 10]: 100 to 1000 nM
SMILES: CS(=O)(=O)N[C@@H]1CCCC[C@H]1Nc1nc(Nc2ccc3c(c2)CNCCS3(=O)=O)ncc1Cl [Example 520, N-{(1R,2R)-2-[5-Chloro-2-(5,5-dioxo-6,7,8,9-tetrahydro-5H-5lambda*6*-thia-8-aza-benzoylcyclohepten-2-ylamino)-pyrimidin-4-ylamino]-cyclohexyl}-methanesulfonamide]

IC50 [1, 3]: 1000 to 10000 nM | IC50 [2, 4]: < 100 nM
SMILES: CCN1C(=O)[C@@H](N(C)C)CCc2c1ccc(Nc1ncc(Cl)c(N[C@H]3[C@@H](C(N)=O)[C@@H]4C=C[C@H]3C4)n1)c2OC (single isomer, unassigned) [Example 1347]

IC50 [1, 5]: < 100 nM | IC50 [2, 6]: < 100 nM
SMILES: CNC(=O)c1ccccc1Nc1nc(Nc2ccc3c(c2)CNC(=O)CC3)ncc1Cl [Example 1794, 2-[5-Chloro-2-(3-oxo-2,3,4,5-tetrahydro-1H-benzo[c]azepin-8-ylamino)-pyrimidin-4-ylamino]-N-methylbenzamide]

IC50 [1, 7]: < 100 nM | IC50 [2, 8]: < 100 nM
SMILES: CCN1C(=O)CCC(C)(C)c2cc(Nc3ncc(Cl)c(Nc4ccccc4C(=O)NC)n3)ccc21 [Example 387, 2-[5-Chloro-2-(1-ethyl-5,5-dimethyl-2-oxo-2,3,4,5-tetrahydro-1H-benzo[b]azepin-7-ylamino)-pyrimidin-4-ylamino]-N-methyl-benzamide]

IC50 [1, 5]: < 100 nM | IC50 [2, 6]: 100 to 1000 nM
SMILES: CCN1C(=O)C(NC(=O)COC)CC(C)(C)c2ccc(Nc3ncc(Cl)c(Nc4c(F)cccc4C(=O)NC)n3)cc21 (centres unmarked) [Example 1644, 2-{5-Chloro-2-[1-ethyl-3-(2-methoxy-acetylamino)-5,5-dimethyl-2-oxo-2,3,4,5-tetrahydro-1H-benzo[b]azepin-8-ylamino]-pyrimidin-4-ylamino}-3-fluoro-N-methyl-benzamide]

IC50 [1, 9]: > 10000 nM | IC50 [2, 10]: < 100 nM
SMILES: COCC(COC)N1CCc2cc(Nc3ncc(Cl)c(Nc4ccc(Cl)cc4S(=O)(=O)N(C)C)n3)c(OC)cc2CC1 [Example 838, 5-Chloro-2-{5-chloro-2-[8-methoxy-3-(2-methoxy-1-methoxymethyl-ethyl)-2,3,4,5-tetrahydro-1H-benzo[d]azepin-7-ylamino]-pyrimidin-4-ylamino}-N,N-dimethyl-benzenesulfonamide]

— US8148391B2 (Cephalon, Inc., priority 2006, dated 2012)
